Target: T1, His-NS3-NS4AFL (full-length NS3-NS4A protein complex) (Hepatitis C virus genotype 1b, UniProt P26663)
T1 construct: made in house; host or cells: Sf21 insect cells, recombinant baculovirus (Bac-to-Bac, pFastBac HTa)
Test: Full-length NS3-NS4A heterodimer protein fluorogenic assay
Format: biochemical, HCV genotype 1b
Conditions: not given
From the text: The NS2-NS5B-3′non coding region was cloned by RT-PCR into the pCR®3 vector (Invitrogen) using RNA extracted from the serum of an HCV genotype 1b infected individual (provided by Dr. Bernard Willems, Hôpital St-Luc, Montréal, Québec, Canada). The NS3-NS4A region (NS3-NS4AFL) was then subcloned by PCR into the pFastBac™ HTa baculovirus expression vector (Gibco/BRL). The vector sequence includes a region encoding a 28-residue N-terminal sequence which contains a hexahistidine tag. The Bac-to-Bac™ baculovirus expression system (Gibco/BRL) was used to produce the recombinant baculovirus. His-NS3-NS4AFL was expressed by infecting 10^6 Sf21 cells/mL with the recombinant baculovirus at a multiplicity of infection of 0.1-0.2 at 27°. Authentic auto-proteolysis occurs during expression to produce a non covalent and stable NS3-NS4A protein complex (referred to as full-length “FL”). The infected culture was harvested 48 to 64 h later by centrifugation at 4°. The cell pellet was homogenized in 50 mM NaPO4, pH 7.5, 40% glycerol (w/v), 2 mM β-mercaptoethanol, in presence of a cocktail of protease inhibitors. His-NS3-NS4AFL was then extracted from the cell lysate with 1.5% NP-40, 0.5% Triton X-100, 0.5M NaCl, and a DNase treatment. After ultracentrifugation, the soluble extract was diluted 4-fold and bound on a Pharmacia Hi-Trap Ni-chelating column. The His-NS3-NS4AFL was eluted in a >90% pure form (as judged by SDS-PAGE), using a 50 to 400 mM imidazole gradient. The His-NS3-NS4AFL was stored at −80° in 50 mM sodium phosphate, pH 7.5, 10% (w/v) glycerol, 0.5 M NaCl, 0.25 M imidazole, 0.1% NP-40. It was thawed on ice and diluted just prior to use.
The protease activity of His-NS3-NS4AFL was assayed in 50 mM Tris-HCl, pH 8.0, 0.25 M sodium citrate, 0.01% (w/v) n-dodecyl-β-D-maltoside, 1 mM TCEP. Five (5) μM of the internally quenched substrate anthranilyl-DDIVPAbu[C(O)—O]-AMY(3-NO2)TW-OH (SEQ. ID NO.: 1) in presence of various concentrations of inhibitor were incubated with 1.5 nM of His-NS3-NS4AFL for 45 min at 23°. […] The reaction was terminated with the addition of 1M MES, pH 5.8. Fluorescence of the N-terminal product was monitored on a Perkin-Elmer LS-50B fluorometer equipped with a 96-well plate reader (excitation wavelength: 325 nm, emission wavelength: 423 nm).
The % inhibition was calculated with the following equation:
100−[(fluoinh−fluoblank)/(fluoctl−fluoblank)×100]
A non-linear curve fit with the Hill model was applied to the inhibition-concentration data, and the 50% effective concentration (IC50) was calculated by the use of SAS software (Statistical Software System; SAS Institute, Inc. Cary, N.C.).

T1 sequence (P26663 1658-1711): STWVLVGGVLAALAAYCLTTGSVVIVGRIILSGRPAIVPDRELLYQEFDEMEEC
T1 sequence (P26663 1027-1657): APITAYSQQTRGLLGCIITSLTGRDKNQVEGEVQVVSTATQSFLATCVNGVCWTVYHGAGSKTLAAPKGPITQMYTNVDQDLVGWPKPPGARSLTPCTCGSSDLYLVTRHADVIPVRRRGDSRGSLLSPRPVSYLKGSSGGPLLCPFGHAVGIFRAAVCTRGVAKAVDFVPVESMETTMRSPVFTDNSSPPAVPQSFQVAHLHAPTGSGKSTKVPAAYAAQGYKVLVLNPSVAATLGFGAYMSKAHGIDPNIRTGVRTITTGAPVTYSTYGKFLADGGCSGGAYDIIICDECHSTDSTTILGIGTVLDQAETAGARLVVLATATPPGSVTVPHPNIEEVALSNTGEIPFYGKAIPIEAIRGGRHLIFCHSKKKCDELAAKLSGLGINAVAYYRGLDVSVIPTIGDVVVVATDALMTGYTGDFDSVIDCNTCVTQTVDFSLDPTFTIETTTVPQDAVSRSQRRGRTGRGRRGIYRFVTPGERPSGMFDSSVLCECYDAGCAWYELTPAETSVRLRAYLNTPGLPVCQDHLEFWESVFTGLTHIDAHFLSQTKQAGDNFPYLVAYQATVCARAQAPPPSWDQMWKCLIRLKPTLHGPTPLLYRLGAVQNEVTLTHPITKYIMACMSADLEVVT

SMILES | IC50
COc1ccc2c(O[C@@H]3C[C@H]4C(=O)N[C@]5(C(=O)O)C[C@@H]5/C=C\CCCCC[C@H](NC(=O)OC(C)(C)C)C(=O)N4C3)cc(-c3nccs3)nc2c1 [Compound 220] | < 100 nM
COc1ccc2c(O[C@@H]3C[C@H]4C(=O)N[C@]5(C(=O)O)C[C@H]5/C=C\CCCCCC(O)C(=O)N4C3)ccnc2c1 (single isomer, unassigned) [Compound 213] | 100 to 1000 nM
CC(=O)N[C@H]1CCC/C=C/CC[C@@H]2C[C@@]2(C(=O)O)NC(=O)[C@@H]2CC(Oc3ccnc4ccccc34)CN2C1=O (stereo partly drawn) [Compound 203] | > 1000 nM
COc1ccc2c(O[C@@H]3C[C@H]4C(=O)N[C@]5(C(=O)O)C[C@H]5/C=C\CCCCC[C@H](NC(=O)OC(C)(C)C)C(=O)N4C3)ccnc2c1 [Compound 207] | < 100 nM
COc1ccc2c(O[C@@H]3C[C@H]4C(=O)N[C@]5(C(=O)O)C[C@H]5CCCCCCC[C@H](NC(=O)OC(C)(C)C)C(=O)N4C3)cc(-c3ccccc3)nc2c1 [Compound 215] | < 100 nM
COc1ccc2c(O[C@@H]3C[C@H]4C(=O)N[C@]5(C(=O)O)C[C@H]5/C=C\CCCCC[C@H](NC(=O)OC(C)(C)C)C(=O)N4C3)cc(-c3ccccc3)nc2c1 [Compound 208] | < 100 nM
COc1ccc2c(O[C@@H]3C[C@H]4C(=O)N[C@]5(C(=O)O)CC5/C=C\CCCCC[C@H](NC(=O)NC(C)(C)C)C(=O)N4C3)cc(-c3ccccc3)nc2c1 (stereo partly drawn) [Compound 209] | < 100 nM
COc1ccc2c(O[C@@H]3C[C@H]4C(=O)N[C@]5(C(=O)O)C[C@H]5/C=C\CCC(O)CC[C@H](NC(=O)OC(C)(C)C)C(=O)N4C3)cc(-c3ccccc3)nc2c1 (mixture of isomers) [Compound 217] | < 100 nM
COc1ccc2c(O[C@@H]3C[C@H]4C(=O)N[C@]5(C(=O)O)C[C@H]5CCCCCCC[C@H](NC(C)=O)C(=O)N4C3)cc(-c3ccccc3)nc2c1 [Compound 219] | < 100 nM
CC(C)(C)OC(=O)N[C@H]1CCCC(O)C(O)CC[C@@H]2C[C@@]2(C(=O)O)NC(=O)[C@@H]2CC(Oc3ccnc4ccccc34)CN2C1=O (stereo partly drawn) [Compound 205] | 100 to 1000 nM
CC(C)(C)OC(=O)N[C@H]1CCC/C=C/CC[C@@H]2C[C@@]2(C(=O)O)NC(=O)[C@@H]2CC(Oc3ccnc4ccccc34)CN2C1=O (stereo partly drawn) [Compound 202] | 100 to 1000 nM

Same assay, conditions: fluorogenic assay of Example 48; no asterisk; read-out: enzyme activity (IC50 grade)

SMILES | IC50
COc1ccc2c(O[C@@H]3C[C@H]4C(=O)N[C@]5(C(=O)O)CC5CCCCCO[C@H](C)[C@H](NC(=O)OC(C)(C)C)C(=O)N4C3)cc(-c3ccccc3)nc2c1 (stereo partly drawn) [Compound 407] | 100 to 1000 nM
COc1ccc2c(OC3CC4C(=O)NC5(C(=O)O)CC5CCC=CCOCC(NC(=O)OC(C)(C)C)C(=O)N4C3)cc(-c3ccccc3)nc2c1 (stereo not drawn) [Compound 403] | < 100 nM
COc1ccc2c(OC3CC4C(=O)NC5(C(=O)O)CC5CCC=CCCCC(NC(=O)OC(C)(C)C)C(=O)N4C3)cc(-c3ccccc3)nc2c1 (stereo not drawn) [Compound 402] | 100 to 1000 nM
CC(=O)Nc1nc(-c2cc(O[C@@H]3C[C@H]4C(=O)N[C@]5(C(=O)O)C[C@H]5/C=C\CCCCC[C@H](NC(=O)OC(C)(C)C)C(=O)N4C3)c3ccc(N(C)C)cc3n2)cs1 [Compound 601] | < 100 nM
COc1ccc2c(O[C@@H]3C[C@H]4C(=O)N[C@]5(C(=O)O)C[C@@H]5/C=C/COCCC[C@H](NC(=O)OC(C)(C)C)C(=O)N4C3)cc(-c3ccccc3)nc2c1 [Compound 303] | 100 to 1000 nM
COc1ccc2c(O[C@@H]3C[C@H]4C(=O)N[C@]5(C(=O)O)C[C@H]5CC/C=C/CCC[C@H](NC(=O)OC(C)(C)C)C(=O)N4C3)cc(-c3ccccc3)nc2c1 [Compound 401] | < 100 nM
CCOc1cc(O[C@@H]2C[C@H]3C(=O)N[C@]4(C(=O)O)C[C@H]4/C=C\CCCCC[C@H](NC(C)=O)C(=O)N3C2)c2ccc(OC)cc2n1 [Compound 308] | < 100 nM
COc1ccc2c(O[C@@H]3C[C@H]4C(=O)N[C@]5(C(=O)O)C[C@H]5/C=C\CCCCC[C@H](NC(=O)OC(C)(C)C)C(=O)N4C3)cc(-c3cnco3)nc2c1 [Compound 603] | < 100 nM
COc1ccc2c(O[C@@H]3C[C@H]4C(=O)N[C@]5(C(=O)O)C[C@@H]5/C=C/CCC[C@H](NC(=O)OC(C)(C)C)C(=O)N4C3)cc(-c3ccccc3)nc2c1 [Compound 302] | > 1000 nM
CC(C)(C)OC(=O)N[C@H]1CCCCC/C=C\[C@@H]2C[C@@]2(C(=O)O)NC(=O)[C@@H]2C[C@@H](Oc3cc(C(F)(F)F)nc4cc(O)ccc34)CN2C1=O [Compound 602] | < 100 nM
COc1ccc2c(O[C@@H]3C[C@H]4C(=O)N[C@]5(C(=O)O)CC5CC/C=C/CO[C@H](C)[C@H](NC(=O)OC(C)(C)C)C(=O)N4C3)cc(-c3ccccc3)nc2c1 (stereo partly drawn) [Compound 404] | 100 to 1000 nM
COc1ccc2c(O[C@@H]3C[C@H]4C(=O)N[C@]5(C(=O)O)C[C@H]5/C=C\COCCC[C@H](O)C(=O)N4C3)cc(-c3ccccc3)nc2c1 [Compound 305] | 100 to 1000 nM
COc1ccc2c(O[C@@H]3C[C@H]4C(=O)N[C@]5(C(=O)O)C[C@H]5CC/C=C/CS[C@@H](C)[C@H](NC(=O)OC(C)(C)C)C(=O)N4C3)cc(-c3ccccc3)nc2c1 [Compound 410] | < 100 nM
COc1ccc2c(O[C@@H]3C[C@H]4C(=O)N[C@]5(C(=O)O)C[C@H]5/C=C\CCCCCC[C@H](NC(=O)OC(C)(C)C)C(=O)N4C3)cc(-c3csc(NC(C)=O)n3)nc2c1 [Compound 307] | < 100 nM
COc1ccc2c(OC3CC4C(=O)NC5(C(=O)O)CC5CCC=CCSC(C)(C)C(NC(=O)OC(C)(C)C)C(=O)N4C3)cc(-c3ccccc3)nc2c1 (stereo not drawn) [Compound 412] | > 1000 nM
COc1ccc2c(O[C@@H]3C[C@H]4C(=O)N[C@]5(C(=O)O)C[C@H]5C=CCCCC=CC[C@H](NC(=O)OC(C)(C)C)C(=O)N4C3)cc(-c3ccccc3)nc2c1 [Compound 304] | < 100 nM

Target: T2, NS3 protease (Hepatitis C virus genotype 1b, UniProt P26663)
T2 construct: expressed in transfected cells; host or cells: Huh-7 human hepatoma cells, transient co-transfection (CMV promoter)
Test: NS3 protease cell-based assay (SEAP reporter, Huh-7 cells)
Set-up: species or system HCV
Conditions: SEAP activity, 24-hour incubation, read-out: cell. act. (EC50 code)
From the text: This assay is done with Huh-7 cells, a human cell line derived from a hepatoma, co-transfected with 2 DNA constructs: one (called NS3) expressing part of the HCV non-structural polyprotein fused to the tTA protein through an NS5A-NS5B cleavage site in the following order: NS3-NS4A-NS4B-NS5A-(NS5B)tTA where (NS5B) represents the 6 first amino acids of NS5
B. This polyprotein is expressed under the control of the CMV promoter, the other (called SEAP) expressing the reporter protein, secreted alkaline phosphatase (SEAP), under the regulation of a tTA-responsive promoter. The first construct leads to the expression of a polyprotein from which the different mature proteins are released through cleavage by the NS3 protease. It is believed that the mature viral proteins forms a complex at the membrane of the endoplasmic reticulum. tTA is a fusion protein, described by Gossen and Bujard (Proc. Natl. Acad. Sci. USA 89 (1992): 5547-5551), which contains a DNA-binding domain and a transcriptional activator. Release of the tTA protein requires an NS3-dependent cleavage at the NS5A-NS5B cleavage site between NS5A and itself. This last cleavage allows tTA to migrate to the nucleus and transactivate the SEAP gene. Therefore, reduction of NS3 proteolytic activity leads to confinement of tTA to the cytoplasm and concomitant decrease in SEAP activity.
To control for cellular activities other than inhibition of NS3 protease which are due to the compound, a parallel co-transfection is done with a construct expressing tTA alone and the same reporter construct such that SEAP activity is independent of the NS3 protease.
Protocol of the assay: Huh-7 cells, grown in CHO-SFMII (Life Technologies)+10% FCS (fetal calf serum) were co-transfected with the two DNA constructs in the following proportions: 7 μg NS3+500 ng SEAP+[…] FuGENE (Boehringer Mannheim) per 4×10^6 Huh-7 cells. After 5 hours at 37° C., the cells were washed, trypsinized and plated (at 80 000 cells/well) in 96-well plates containing a range of concentrations of the compounds to be tested. After a 24-hour incubation period, the SEAP activity in the medium was measured with the Phospha-Light kit (Tropix).
Analysis of the percent inhibition of SEAP activity with respect to compound concentration was performed with the SAS software to obtain the EC50.

T2 sequence (P26663 1658-1711): as the sequence (P26663 1658-1711) above
T2 sequence (P26663 1027-1657): as the sequence (P26663 1027-1657) above

SMILES | EC50
COc1ccc2c(O[C@@H]3C[C@H]4C(=O)N[C@]5(C(=O)O)CC5CCCCCCC[C@H](NC(=O)OC5CCCC5)C(=O)N4C3)cc(-c3csc(NC(C)=O)n3)nc2c1 (stereo partly drawn) [Compound 909] | ≤ 1000 nM
CCNc1nc(-c2cc(O[C@@H]3C[C@H]4C(=O)N[C@]5(C(=O)O)CC5CCCCCCC[C@H](NC(=O)OC(C)(C)C)C(=O)N4C3)c3ccc(OC)cc3n2)cs1 (stereo partly drawn) [Compound 703] | ≤ 1000 nM
COc1ccc2c(O[C@@H]3C[C@H]4C(=O)N[C@]5(C(=O)O)CC5CCCCCCC[C@H](NC(=O)OC5CCCC5)C(=O)N4C3)cc(-n3cccc3)nc2c1 (stereo partly drawn) [Compound 907] | ≤ 1000 nM
